# Measurements reported in paper PMC12073635, “Synthesis of Tricyclic and Tetracyclic Lactone Derivatives of Thieno[2,3-b]pyrazine or Thieno[2,3-b]quinoline: Preliminary Antitumor and Antiparasitic Activity Evaluation” (Molecules, 2025).
# Experiments:
# [1] = tested on: CaCo-2 (colorectal adenocarcinoma) cells; experiment: SRB cell growth inhibition assay, CaCo-2; type: cell-based, human; conditions: Homo sapiens, Caco-2, 72 h, mean ± standard deviation
# Description: (§1) The antitumor potential of the Sonogashira coupling products 2, tricyclic lactones 3 and 5, and tetracyclic lactones 7 was evaluated using the sulforhodamine B (SRB) assay against five human tumor cell lines: colorectal adenocarcinoma (CaCo-2), breast adenocarcinoma (MCF-7), gastric adenocarcinoma (AGS), cervical carcinoma (HeLa), and non-small cell lung cancer (NCI-H460). A primary pig liver cell culture (PLP2) was used to assess the toxicity of compounds.
# (§2) The human tumor cell lines used were CaCo-2 (colorectal adenocarcinoma), MCF-7 (breast adenocarcinoma), AGS (gastric adenocarcinoma), HeLa (cervical carcinoma), NCI-H460 (lung carcinoma). Non-tumor cell lines were also tested: PLP2 (primary pig liver culture). All the cell lines were maintained in RPMI-1640 medium supplemented with 10% fetal bovine serum, glutamine (2 mM), penicillin (100 U/mL), and streptomycin ([…]), with the exception of PLP2, which was maintained in DMEM medium supplemented with fetal bovine serum (10%), glutamine and antibiotics. The culture flasks were incubated at 37 °C and with 5% CO2, under a humid atmosphere. The cells were used only when they had 70 to 80% confluence. A known mass of each compound was dissolved in DMSO/H2O (1:1, 1 mL), in order to obtain the stock solutions with a concentration of 1 mM. […] Each compound concentration (10 μL) was incubated with the cell suspension (190 μL) of the cell lines tested in 96-well microplates for 72 h. The microplates were incubated at 37 °C and with 5% CO2 in a humid atmosphere after checking the adherence of the cells. All cell lines were tested at a concentration of 10,000 cells/well. After the incubation period, the cells were treated: TCA (10% w/v; 100 μL) was previously cooled, and plates were incubated for 1 h at 4 °C, washed with water, and, after drying, a SRB solution (0.057%, m/v; 100 μL) was added and left to stand at room temperature for 30 min. To remove non-adhered SRB, plates were washed three times with a solution of acetic acid (1% v/v) and placed to dry. Finally, an adhered SRB was solubilized with Tris (10 mM, 200 μL) and the absorbance at a wavelength of 540 nm was read in the Biotek ELX800 microplate reader. The results obtained by the SRB assay were expressed regarding the concentration compounds that can inhibit cell growth by 50%—GI50. Doxorubicin was used as a positive control.
# [2] = tested on: MCF-7 (breast adenocarcinoma) cells; experiment: SRB cell growth inhibition assay, MCF-7; type: cell-based, human; conditions: Homo sapiens, MCF7, 72 h, mean ± standard deviation
# Description: as §1, §2
# [3] = tested on: AGS (gastric adenocarcinoma) cells; experiment: SRB cell growth inhibition assay, AGS; type: cell-based; conditions: Homo sapiens, 72 h, mean ± standard deviation
# Description: as §1, §2
# [4] = tested on: HeLa (cervical carcinoma) cells; experiment: SRB cell growth inhibition assay, HeLa; type: cell-based; conditions: Homo sapiens, 72 h, mean ± standard deviation
# Description: as §1, §2
# [5] = tested on: NCI-H460 (non-small cell lung cancer) cells; experiment: SRB cell growth inhibition assay, NCI-H460; type: cell-based; conditions: Homo sapiens, 72 h, mean ± standard deviation
# Description: as §1, §2
# [6] = SRB assay, toxicity in non-tumor PLP2 cells; type: cell-based, pig; conditions: PLP2 primary pig liver cells (non-tumor); non-tumor primary pig liver cells, SRB assay, 72 h, mean ± standard deviation
# Description: as §1, §2
# [7] = MTT cytotoxicity in THP-1-derived macrophages; type: cell-based, human; conditions: human, THP-1-derived macrophages (PMA-differentiated); MTT, 72 h, tested 100 to 12.5 μM; read-out: CC50 Interval in THP-1-Derived Macrophages
# Description: Human leukemia cell line, THP-1 (ATCC® TIB-202™, Manassas, VA, USA) was cultured in RPMI-1640 medium supplemented with 10% heat-inactivated Fetal Bovine Serum (FBS), 2 mM L-glutamine, 100 UI/mL penicillin/streptomycin, 20 mM HEPES. The cell line was maintained in a humidified incubator at 37 °C and 5% CO2 by subculture every three days in 20 mL of media at a concentration of 1 × 10^5/mL in a T75 flask. All cell culture reagents were purchased from Lonza-Bioscience (Morrisville, NC, USA).
# The cytotoxicity effect of compounds on THP-1-derived macrophages was assessed by the colorimetric MTT assay (3-(4,5-dimethylthiazol-2-yl)-2,5-diphenyl tetrazolium bromide). Briefly, THP-1 cells were suspended in RPMI complete medium at a density of 1 × 10^6 cells/mL and 100 μL/well were seeded in a 96-well plate and were differentiated into macrophages by addition of 40 ng/mL of phorbol-myristate 13-acetate (PMA, Sigma, Saint Louis, MI, USA) for 24 h followed by replacement with fresh medium for more 24 h. Subsequently, cells were incubated with 100 μL of compounds ranging from 100 to 12.5 μM after dilution in the RPMI complete medium. Each condition was carried out in quadruplicate. After 72 h of incubation at 37 °C 5% CO2, the medium was removed and 200 μL of 0.5 mg/mL MTT solution diluted in RPMI was added. Plates were incubated for an additional 4 h. Then 160 μL of media was removed and the same volume of 2-propanol was added. Absorbance was read at 570 nm using a Synergy 2 Multi-Mode Reader (Biotek, Winooski, VT, USA). Cytotoxicity was evaluated by the determination of the CC50 value (drug concentration that reduced the percentage of viable cells in 50%) and calculated by non-linear regression analysis using GraphPad Prism version 8.1.1 for Windows (GraphPad Software, San Diego, CA, USA). The results represent the average of at least three independent experiments. For each compound, the Selectivity Index (SI) was calculated as the ratio between cytotoxicity in THP-1 (CC50, 72 h) and activity against parasites (IC50, 72 h).
# [8] = tested on: T. brucei Lister 427 bloodstream forms; experiment: Resazurin-based anti-T. brucei assay; type: cell-based, Trypanosoma brucei; conditions: Trypanosoma brucei, 72 h, dose-response
# Description: (§3) The antiparasitic activity of compounds 2c–g, 3a, 5a and 7 was evaluated at a single concentration of 20 μM, against Trypanosoma brucei (T. brucei) and Leishmania infantum (L. infantum) promastigotes. The results are shown in Table 9 together with the cytotoxicity data (CC50) in THP-1–derived macrophages cells.
# T. brucei Lister 427 bloodstream forms were grown in a humidified incubator at 37 °C, 5% CO2 in complete HMI-9 medium 1 supplemented with 10% heat-inactivated Fetal Bovine Serum (FBS) and 100 UI/mL penicillin/streptomycin. Parasites maintenance was performed in T25 ventilated flasks by subpassage at a concentration of 1 × 10^4/mL every 2 days on T25 ventilated flasks.
# The efficacy of compounds against T. brucei bloodstream forms was evaluated using a modified resazurin-based assay previously described in the literature. Parasites were added to 100 µL of serial dilutions of compounds in supplemented complete medium at a cell density of 5 × 10^3/mL for. As a quality control, a dose–response curve for the antitrypanosomal pentamidine was included in all the assays. The final volume of the assay is 200 µL/well. Each condition was carried out in duplicate. Following 72 h incubation at the specific conditions for T. brucei, 20 µL of a 0.5 mM resazurin solution was added and plates were incubated for a further 4 h under the same conditions. Fluorescence was measured at 544 nm and 590 nm excitation and emission wavelength, respectively, using a Synergy 2 Multi-Mode Reader (Biotek, Winooski, VT, USA). Results were shown as % of parasite growth inhibition compared to control (untreated parasites) and represent the average of at least three independent experiments. The effect was evaluated by the determination of the IC50 value (concentration required to inhibit growth in 50%) and calculated by non-linear regression curves using GraphPad Prism version 8.1.1 for Windows (GraphPad Software, San Diego CA, USA).
# [9] = tested on: L. infantum MHOM/MA/67/ITMAP-263 promastigotes; experiment: Resazurin-based assay against L. infantum promastigotes; type: cell-based, Leishmania infantum; conditions: Leishmania infantum, 72 h, dose-response
# Description: as §3
# L. infantum MHOM/MA/67/ITMAP-263 promastigotes forms were grown at 27 °C, in complete RPMI-1640 medium supplemented with 10% heat-inactivated Fetal Bovine Serum (FBS), 2 mM L-glutamine, 100 UI/mL penicillin/streptomycin, 20 mM HEPES. Parasites maintenance was performed in T25 non-ventilated flasks by subpassage at a concentration of 1 × 10^6/mL every 5 days on T25 non-ventilated flasks.
# The compounds’ efficacy against L. infantum promastigotes was evaluated using a resazurin-based assay. Parasites were added to 100 µL of serial dilutions of compounds in supplemented complete medium at a cell density of 5 × 10^5/mL. As a quality control, a dose–response curve to the antileishmanial drug miltefosine was included in all the assays. The final volume of the assay was 200 µL/well. Each condition was carried out in duplicate. Following 72 h of incubation at the specific conditions for L. infantum, 20 µL of a 0.5 mM resazurin solution was added, and the plates were incubated for a further 4 h under the same conditions. The methodology to obtain the results was the same described in Section 3.2.2. for T. brucei.
SMILES,GI50 [1] [µM],GI50 [2] [µM],GI50 [3] [µM],GI50 [4] [µM],GI50 [5] [µM],GI50 at 72 h [6] [µM],CC50 at 72 h [7] [µM],IC50 [8] [µM],IC50 [9] [µM]
"COC(=O)c1sc2nccnc2c1C#Cc1ccc(N)cc1 [Compound 2b, Methyl 7-[(4-aminophenyl)ethynyl]thieno[2,3-b]pyrazine-6-carboxylate]",59.2 ± 1.76,49.7 ± 2.41,51.4 ± 2.87,47.9 ± 3.58,48.6 ± 4.31,> 125,,,
"Cc1ccc(-c2cc3c(sc4nccnc43)c(=O)o2)cc1 [Compound 3e, 8-(p-Tolyl)-6H-pyrano[4′,3′:4,5]thieno[2,3-b]pyrazin-6-one]",28.8 ± 1.85,47.6 ± 4.5,43.8 ± 1.76,38.2 ± 3.29,29.3 ± 1.47,90.5 ± 6.47,,,
"O=c1oc(-c2ccc(Br)cc2)c(-c2ccc(Br)cc2)c2c1sc1nc3ccccc3cc12 [Compound 7c, 3,4-Bis(4-bromophenyl)-1H-pyrano[4′,3′:4,5]thieno[2,3-b]quinolin-1-one]",87.8 ± 8.01,90.3 ± 4.16,104 ± 9.12,77.1 ± 1.12,108 ± 5.44,> 125,< 12.5,,
"COc1cccc2c1C(=O)c1c(O)c3c(c(O)c1C2=O)C[C@@](O)(C(=O)CO)C[C@@H]3O[C@H]1C[C@H](N)[C@H](O)[C@H](C)O1 [doxorubicin, Doxorubicin, reference compound]",0.04,0.05,0.03,0.05,0.07,0.1,,,
"O=c1oc(-c2ccccc2)c(Br)c2c1sc1nccnc12 [Compound 5b, 9-Bromo-8-phenyl-6H-pyrano[4′,3′:4,5]thieno[2,3-b]pyrazin-6-one]",18.3 ± 0.92,45.1 ± 1.74,32.8 ± 1.56,29.1 ± 2.81,48.3 ± 1.08,89.8 ± 1.79,,,
"CCCCCCCCCCCCCCCCOP(=O)([O-])OCC[N+](C)(C)C [Milefosine, miltefosine, reference compound]",,,,,,,,2.9,
"Cc1c(-c2ccccc2)oc(=O)c2sc3nc4ccccc4cc3c12 [Compound 7f, 4-Methyl-3-phenyl-1H-pyrano[4’,3’:4,5]thieno[2,3-b]quinolin-1-one]",87 ± 3.51,76.4 ± 2.58,83.4 ± 6.27,71.5 ± 2.36,92.1 ± 3.89,> 125,12.5 to 50,,
"O=c1oc(-c2ccsc2)cc2c1sc1nccnc12 [Compound 3g, 8-(thiophen-3-yl)-6H-pyrano[4′,3′:4,5]thieno[2,3-b]pyrazin-6-one]",52.5 ± 1.31,48.6 ± 2.15,45.3 ± 0.89,39 ± 1.78,44 ± 3.28,> 125,,,
"Nc1ccc(-c2cc3c(sc4nccnc43)c(=O)o2)cc1 [Compound 3b, 8-(4-aminophenyl)-6H-pyrano[4′,3′:4,5]thieno[2,3-b]pyrazin-6-one]",67.5 ± 4.19,75.7 ± 6.48,74.3 ± 5.96,58.1 ± 4.29,82.7 ± 7.41,> 125,,,
"O=c1oc(-c2ccc(F)cc2)cc2c1sc1nccnc12 [Compound 3c, 8-(4-fluorophenyl)-6H-pyrano[4′,3′:4,5]thieno[2,3-b]pyrazin-6-one]",44.1 ± 0.93,56.1 ± 3.56,51.5 ± 3.29,48.4 ± 3.19,72.4 ± 6.24,> 125,,,
"COc1ccc(-c2cc3c(sc4nccnc43)c(=O)o2)cc1 [Compound 3d, 8-(4-Methoxyphenyl)-6H-pyrano[4′,3′:4,5]thieno[2,3-b]pyrazin-6-one]",90.5 ± 6.47,58.6 ± 1.86,56.2 ± 3.02,50.3 ± 4.79,45.3 ± 3.27,> 125,,,
"COC(=O)c1sc2nccnc2c1C#Cc1ccccc1 [Compound 2a, Methyl 7-(phenylethynyl)thieno[2,3-b]pyrazine-6-carboxylate]",70 ± 3.78,94.8 ± 6.43,86.8 ± 4.99,68.7 ± 3.05,91.5 ± 9.12,> 125,,,
"O=c1oc(-c2ccccc2)cc2c1sc1nccnc12 [Compound 3a, 8-phenyl-6H-pyrano[4′,3′:4,5]thieno[2,3-b]pyrazin-6-one]",79.9 ± 3.56,77.5 ± 1.23,56.4 ± 3.76,49.7 ± 2.69,36.5 ± 0.69,> 125,50 to 100,,
"N=C(N)c1ccc(OCCCCCOc2ccc(C(=N)N)cc2)cc1 [Pentamidine, pentamidine, reference compound]",,,,,,,,,2.94
